≈ marks a conversion by molar mass, not a printed value.
Tests used:
Bacillus subtilis = test: Antibacterial activity against Bacillus subtilis ATCC 6633 assessed as reduction in bacterial cell growth incubated for overnight by two-fold serial dilution method; type: functional
Staphylococcus aureus [1] = test: Antibacterial activity against Staphylococcus aureus ATCC 25923 assessed as reduction in bacterial cell growth incubated for overnight by two-fold serial dilution method; type: functional
Escherichia coli = test: Antibacterial activity against Escherichia coli JM109 assessed as reduction in bacterial cell growth incubated for overnight by two-fold serial dilution method; type: functional
Cryptococcus neoformans = test: Antifungal activity against Cryptococcus neoformans ATCC 32719 assessed as reduction in fungal cell growth incubated for 48 hrs by two-fold serial dilution method; type: functional; conditions: ATCC 32719, 48 h
Staphylococcus aureus [2] = test: Antibacterial activity against methicillin resistant Staphylococcus aureus N 315 assessed as reduction in bacterial cell growth incubated for overnight by two-fold serial dilution method; type: functional
Proteus vulgaris = test: Antibacterial activity against Bacillus proteus ATCC 8427 assessed as reduction in bacterial cell growth incubated for overnight by two-fold serial dilution method; type: functional
Candida albicans = test: Antifungal activity against Candida albicans ATCC 76615 assessed as reduction in fungal cell growth incubated for 48 hrs by two-fold serial dilution method; type: functional; conditions: ATCC 76615, 48 h
Pseudomonas aeruginosa = test: Antibacterial activity against Pseudomonas aeruginosa ATCC 9027 assessed as reduction in bacterial cell growth incubated for overnight by two-fold serial dilution method; type: functional
Aspergillus flavus = test: Antifungal activity against Aspergillus flavus ATCC 16870 assessed as reduction in fungal cell growth incubated for 48 hrs by two-fold serial dilution method; type: functional; conditions: ATCC 16870, 48 h
[3] = Inhibition of Saccharomyces cerevisiae CGMCC 2.145 chitin synthase using GlcNAc and UDP-GlcNAc as substrate incubated for 60 mins by microplate reader analysis
Saccharomyces cerevisiae = test: Inhibition of Saccharomyces cerevisiae CGMCC 2.145 chitin synthase using GlcNAc and UDP-GlcNAc as substrate at 300 ug/ml incubated for 60 mins by microplate reader analysis relative to control

SMILES	MIC (Bacillus subtilis) [µg/mL]	MIC (Staphylococcus aureus [1]) [µg/mL]	MIC (Escherichia coli) [µg/mL]	MIC (Cryptococcus neoformans) [µg/mL]	MIC (Staphylococcus aureus [2]) [µg/mL]	MIC (Proteus vulgaris) [µg/mL]	MIC (Candida albicans) [µg/mL]	MIC (Pseudomonas aeruginosa) [µg/mL]	MIC (Aspergillus flavus) [µg/mL]	IC50 [3] [µM]	inhibition (Saccharomyces cerevisiae) [%]
Cl.O=C1CCc2c(cccc2N2CCN(C[C@@H](O)CNc3ccc(Br)cc3)CC2)N1	64	64	256	128	128	128	64	128	128	350	
Cl.O=C1CCc2c(cccc2N2CCN(C[C@@H](O)CNc3ccccc3)CC2)N1	128	128	128	128	128	256	128	128	128	190	
Cl.O=C1CCc2c(cccc2N2CCN(C[C@H](O)CNc3ccccc3)CC2)N1	256	256	256	256	128	128	64	256	128	170	
Cl.O=C1CCc2c(cccc2N2CCN(C[C@H](O)CNc3ccc(Cl)cc3)CC2)N1	128	128	128	256	128	128	32	256	128	380	
CCCCNC[C@@H](O)CN1CCN(c2cccc3c2CCC(=O)N3)CC1.Cl	256	256	256	128	256	256	128	256	256	310	
COc1ccc(NC[C@@H](O)CN2CCN(c3cccc4c3CCC(=O)N4)CC2)cc1.Cl	128	128	64	128	128	128	64	256	256	120	
Cl.O=C1CCc2c(cccc2N2CCN(C[C@@H](O)CNc3ccc(Cl)cc3)CC2)N1	64	64	128	128	64	128	32	256	128	360	
Cl.O=C1CCc2c(cccc2N2CCN(C[C@H](O)CNc3ccc(Br)cc3)CC2)N1	128	64	128	128	64	256	128	128	64	330	
COc1ccc(NC[C@H](O)CN2CCN(c3cccc4c3CCC(=O)N4)CC2)cc1.Cl	256	64	32	256	128	256	32	128	128	120	
Cc1ccc(NCC(O)CN2CCN(c3cccc4c3CCC(=O)N4)CC2)cc1.Cl (racemic)	128	64	128	> 512	64	64	128	128	128		17.6
Cl.O=C1CCc2c(cccc2N2CCN(CC(O)CNCc3ccc(Cl)cc3)CC2)N1 (racemic)	256	256	256	256	256	128	128	256	256		42.5
Cc1ccccc1NCC(O)CN1CCN(c2cccc3c2CCC(=O)N3)CC1.Cl (racemic)	128	128	256	256	128	128	128	128	256		28.4
Cl.O=C1CCc2c(cccc2N2CCN(CC(O)Cn3cnnc3)CC2)N1 (racemic)	128	128	64	128	256	64	64	128	256		30.8
Cl.O=C1CCc2c(cccc2N2CCN(CC(O)CN3CCCCCC3)CC2)N1 (racemic)	256	256	256	256	512	256	128	256	256		45.4
COc1ccccc1NCC(O)CN1CCN(c2cccc3c2CCC(=O)N3)CC1.Cl (racemic)	256	256	258	512	128	256	128	128	256		45.4
Cl.O=C1CCc2c(cccc2N2CCN(CC(O)CNCc3ccccc3)CC2)N1 (racemic)	256	256	256	> 512	128	256	128	256	> 512		18.1
Cc1cccc(C)c1NCC(O)CN1CCN(c2cccc3c2CCC(=O)N3)CC1.Cl (racemic)	128	128	128	256	256	128	128	128	256		40.7
Cl.O=C1CCc2c(cccc2N2CCN(CC(O)CN(CCO)CCO)CC2)N1 (racemic)	256	256	256	256	512	256	128	256	256		34.5
CCN(CC)CC(O)CN1CCN(c2cccc3c2CCC(=O)N3)CC1.Cl (racemic)	512	256	512	256	256	512	128	128	512		39.4
CC(C)(C)NCC(O)CN1CCN(c2cccc3c2CCC(=O)N3)CC1.Cl (racemic)	512	256	256	256	256	256	128	128	256		48.3
Cl.O=C1CCc2c(cccc2N2CCN(CC(O)CN3CCCCC3)CC2)N1 (racemic)	256	256	128	256	512	256	64	256	256		32.4
Cl.O=C1CCc2c(cccc2N2CCN(CC(O)CN3CCCC3)CC2)N1 (racemic)	256	256	128	256	256	256	128	512	256		49.9
Cl.O=C1CCc2c(cccc2N2CCN(CC(O)CN3CCOCC3)CC2)N1 (racemic)	128	256	128	256	128	128	64	128	256		44.7
Cl.O=C1CCc2c(cccc2N2CCN(CC(O)CN3CCNCC3)CC2)N1 (racemic)	128	256	256	256	256	256	128	128	256		38.6
Cl.O=C1CCc2c(cccc2N2CCN(CC(O)CNc3cccc4ccccc34)CC2)N1 (racemic)	256	128	128	256	128	128	128	128	512		47.5
OC(Cn1cncn1)(Cn1cncn1)c1ccc(F)cc1F [FLUCONAZOLE]				4 (≈ 13.1 µM)			16 (≈ 52.2 µM)		64 (≈ 209 µM)		
CCn1cc(C(=O)O)c(=O)c2cc(F)c(N3CCNCC3)cc21 [NORFLOXACIN]	1 (≈ 3.13 µM)	2 (≈ 6.26 µM)	1 (≈ 3.13 µM)		2 (≈ 6.26 µM)	2 (≈ 6.26 µM)		0.5 (≈ 1.57 µM)			
CN[C@@H]1[C@H](O[C@H]2[C@H](O[C@H]3[C@H](O)[C@@H](O)[C@H](N=C(N)N)[C@@H](O)[C@@H]3N=C(N)N)O[C@@H](C)[C@]2(O)C=O)O[C@@H](CO)[C@H](O)[C@H]1O.CN[C@@H]1[C@H](O[C@H]2[C@H](O[C@H]3[C@H](O)[C@@H](O)[C@H](N=C(N)N)[C@@H](O)[C@@H]3N=C(N)N)O[C@@H](C)[C@]2(O)C=O)O[C@@H](CO)[C@H](O)[C@H]1O.O=S(=O)(O)O.O=S(=O)(O)O.O=S(=O)(O)O [STREPTOMYCIN SULFATE]	8	8	4		32	16		16			

Reference: ChEMBL document CHEMBL4359852, “Design, synthesis and biological evaluation of novel 5-(piperazin-1-yl)quinolin-2(1H)-one derivatives as potential chitin synthase inhibitors and antifungal agents” (Eur J Med Chem, 2019)
